# Measurements reported in patent US12221494B2, “Short synthetic peptides and their uses for treating retinal degenerative diseases and/or tissue injuries” (MacKay Memorial Hospital, priority 2019, dated 2025).
# Ends that are not written are not given here.
# Test system: survivin mRNA
# Assay: Real-time qPCR of survivin mRNA in C2C12 cells
# Format: cell-based, mouse
# Settings: for survivin mRNA induction compared to solvent control / survivin mRNA induction, in words: C2C12 cells in low serum media, 20 μM peptide, 6 h
# Description: Total RNA was extracted from cells using TRIzol (Invitrogen). Synthesis of cDNA was performed with 1 μg of total RNA at 50° C. for 50 min using oligo(dT) primers and reverse transcriptase (Superscript III; Invitrogen). Briefly, quantification of cDNA was performed in the LightCycler (Roche, Mannheim, Germany) using the DNA Master SYBR Green I kit (Roche) with the following cycling conditions: initial denaturation at 95° C. for 10 min, followed by 40 cycles at 95° C. for 10 s, 60° C. for 10 s, and 72° C. for 10 s and a 5-min terminal incubation at 72° C. The data were calculated with AACt. The expression was then normalized against the expression of glyceraldehyde-3-phosphate dehydrogenase (GAPDH). The PCR primers were mouse Survivin sense, 5′-[…]-3′ (SEQ ID NO: 27), anti-sense, 5′-[…]-3′ (SEQ ID NO: 28) (accession number: NM_001012273.1; PCR product: 136 bp); mouse GAPDH sense, 5′-[…]-3′ (SEQ ID NO: 29), anti-sense, 5′-[…]-3′ (SEQ ID NO: 30) (NM_001289726.1; 149 bp). For analysis rabbit inflammatory gene expression, The PCR primers were rabbit TNF-αsense, 5′-[…]-3′ (SEQ ID NO: 31), anti-sense, 5′-[…]-3′ (SEQ ID NO: 32) (accession number: NM 001082263.1); rabbit IL-1βsense, 5′-[…]-3′(SEQ ID NO: 33), anti-sense, 5′-[…]-3′ (SEQ ID NO: 34) (NM 001082201.1); rabbit GAPDH sense, 5′-[…]-3′ (SEQ ID NO: 35), anti-sense, 5′-[…]-3′ (SEQ ID NO: 36) (accession number:NM 001082253.1). The cycle threshold (Ct) values of the PCR product and a GAPDH (Glyceraldehyde 3-phosphate dehydrogenase) control mRNA were used to calculate relative quantities of mRNA.
# Similar to the approach in Example 1.2.1, the expression level of survivin mRNA in C2C12 cells was used as an indicator for the function of the 6-mer variants in Tables 3 to 5. Briefly, C2C12 cells in low serum media were treated with 20 μM the 6-mer variants for 6 h. […] The results also confirmed that alanine substation at the glutamic acid (E) residues would severely impair the 6-mer activity.
Compound,survivin mRNA induction compared to solvent control,"survivin mRNA induction, in words",also measured
"NH2-Ser-Leu-Gly-Glu-Glu-Gln-COOH (SLGEEQ; not fully specified (N-terminus, C-terminus); printed as NH2-Ser-Leu-Gly-Glu-Glu-Gln-COOH) [6-mer Ae]",1.5 fold,,
NH2-Ser-Leu-Gly-Ala-(D-Glu)-Gln-COOH (SLGAEQ; HELM PEPTIDE1{S.L.G.A.[dE].Q}$$$$V2.0; SMILES CC(C)C[C@H](NC(=O)[C@@H](N)CO)C(=O)NCC(=O)N[C@@H](C)C(=O)N[C@H](CCC(=O)O)C(=O)N[C@@H](CCC(N)=O)C(=O)O) [6-mer dE],,moderate induction on survivin mRNA level,
NH2-Ser-(D-Leu)-Gly-Ala-Glu-Gln-COOH (SLGAEQ; HELM PEPTIDE1{S.[dL].G.A.E.Q}$$$$V2.0; SMILES CC(C)C[C@@H](NC(=O)[C@@H](N)CO)C(=O)NCC(=O)N[C@@H](C)C(=O)N[C@@H](CCC(=O)O)C(=O)N[C@@H](CCC(N)=O)C(=O)O) [6-mer dL],,hamper the survivin gene induction activity significantly,
"NH2-Ser-Leu-Asn-Ala-Glu-Gln-COOH (SLNAEQ; not fully specified (N-terminus, C-terminus); printed as NH2-Ser-Leu-Asn-Ala-Glu-Gln-COOH) [6-mer Gn]",1.5 fold,,
"NH2-Ser-Leu-Gly-Gly-Glu-Gln-COOH (SLGGEQ; not fully specified (N-terminus, C-terminus); printed as NH2-Ser-Leu-Gly-Gly-Glu-Gln-COOH) [6-mer Ag]",1.5 fold,,
NH2-Ser-Leu-Gly-Ala-Glu-(D-Gln)-COOH (SLGAEQ; HELM PEPTIDE1{S.L.G.A.E.[dQ]}$$$$V2.0; SMILES CC(C)C[C@H](NC(=O)[C@@H](N)CO)C(=O)NCC(=O)N[C@@H](C)C(=O)N[C@@H](CCC(=O)O)C(=O)N[C@H](CCC(N)=O)C(=O)O) [6-mer dQ],,hamper the survivin gene induction activity significantly,
"NH2-Ser-Leu-Gly-Ile-Glu-Gln-COOH (SLGIEQ; not fully specified (N-terminus, C-terminus); printed as NH2-Ser-Leu-Gly-Ile-Glu-Gln-COOH) [6-mer Ai]",,severely impaired the survivin mRNA induction,
"NH2-Ser-Leu-Gly-Ser-Glu-Gln-COOH (SLGSEQ; not fully specified (N-terminus, C-terminus); printed as NH2-Ser-Leu-Gly-Ser-Glu-Gln-COOH) [6-mer As]",,severely impaired the survivin mRNA induction,
"NH2-Ser-Leu-Gly-Ala-Asp-Gln-COOH (SLGADQ; not fully specified (N-terminus, C-terminus); printed as NH2-Ser-Leu-Gly-Ala-Asp-Gln-COOH) [6-mer Ed]",,severely impaired the survivin mRNA induction,
"NH2-Ser-Leu-Gly-Ala-Glu-Ala-COOH (SLGAEA; not fully specified (N-terminus, C-terminus); printed as NH2-Ser-Leu-Gly-Ala-Glu-Ala-COOH) [6-mer Qa]",1.6 fold,,
"NH2-Ser-Ala-Gly-Ala-Glu-Gln-COOH (SAGAEQ; not fully specified (N-terminus, C-terminus); printed as NH2-Ser-Ala-Gly-Ala-Glu-Gln-COOH) [6-mer La]",1.5 fold,,
"NH2-Ser-Leu-Ala-Ala-Glu-Gln-COOH (SLAAEQ; not fully specified (N-terminus, C-terminus); printed as NH2-Ser-Leu-Ala-Ala-Glu-Gln-COOH) [6-mer Ga]",1.6 fold,,
"O=[N+]([O-])c1ccc2c(c1)S(=O)(=O)C=C2 [STAT3 inhibitor V, reference compound]",,,"survivin mRNA expression induced by the 6-mer dS in cells pretreated with STAT3 inhibitor (C2C12 cells, 2.6-fold without inhibitor): 1.3 fold"
